{"source": "patent EP0028778B1", "about": "“Antibacterial compositions comprising a beta-lactam-type compound and a 3-substituted propenoate” (Merck & Co., Inc., priority 1979, dated 1981)", "key": {"rabbits [1]": {"tested_on": "rabbits", "assay": "Nephrotoxicity of NFT alone or in combination with DMCO, intravenous, rabbits, 48 hours", "assay_type": "in vivo, New Zealand white rabbits", "details": "for numbers of rabbits with renal tubular necrosis/numbers of rabbits tested / Renal Tubular Necrosis (degree) / BUN / Creatinine: i.v., 48 hours, rabbits; for Renal Tubular Necrosis (degree): histology; for BUN: mean; for Creatinine: mean serum", "method": "The compound N-formimidoyl theinamycin (NFT) and the compound Z-2-(2,2-dimethylcyclopropane carboxamido)-2-ocetenoic acid (DMCO) were tested in rabbits to evaluate nephrootoxicity.\nEither NFT alone or in combination with DMCO was administered intravenously to rabbits. After 48 hours blood samples were taken for determination of BUN and creatinine concentrations and the rabbits were killed for histologic examination of kidney sections.\nThe study was initiated with 28 New Zealand white rabbits which ranged in age from 23 to 27 weeks, and in weight from 2.78 to 3.71 kg for males and 2.81 to 3.85 kg for females. All animals were housed in individual stainless steel cages and maintained in climate-controlled rooms with access to food (Purina Rabbit Chow) and tap water ad libitum.\nNFT was administered to six groups of 2 male and 2 female rabbits each at a nominal dose of 180 mg/kg. Five of these groups received DMCO in addition to NFT at nominal doses of 90, 30, 10, 3 or 1 mg/kg. All doses were administered via the marginal ear vein at a dosage volume of 1.89 ml/kg. An additional group of 2 male and 2 female rabbits received 0.9% sterile saline and served as controls.\nNFT was dissolved in solutions of sodium bicarbonate (NFT alone group) or sterile solutions of DMCO in sodium bicarbonate at five different concentrations; these solutions were prepared immediately prior to use.\nThe mean BUN and serum creatinine concentrations and the degrees of renal tubular epithelial necrosis are shown below in Table I: […]"}, "rabbits [2]": {"tested_on": "rabbits", "assay": "Nephrotoxicity of NFT alone or in combination with DMCO, intravenous, rabbits, 48 hours", "assay_type": "in vivo, New Zealand white rabbits", "details": "single large doses, within 48 hours, dose rates comparable to those used with cephaloridine"}}, "data": [{"smiles": "CCCCC/C=C(\\NC(=O)C1CC1(C)C)C(=O)O", "note": "(centres unmarked) [DMCO, Z-2-(2,2-dimethylcyclopropanecarboxamido)-2-octenoic acid]", "values": [{"measurement": "numbers of rabbits with renal tubular necrosis/numbers of rabbits tested", "setting": "rabbits [1]; NFT 180 mg/kg + DMCO 1 mg/kg", "value": "4/4"}, {"measurement": "Renal Tubular Necrosis (degree)", "setting": "rabbits [1]; NFT 180 mg/kg + DMCO 1 mg/kg", "value": "Marked-Severe"}, {"measurement": "BUN", "setting": "rabbits [1]; NFT 180 mg/kg + DMCO 1 mg/kg", "value": "64.7^S mg/100 ml"}, {"measurement": "Creatinine", "setting": "rabbits [1]; NFT 180 mg/kg + DMCO 1 mg/kg", "value": "4.2^S mg/100 ml"}, {"measurement": "numbers of rabbits with renal tubular necrosis/numbers of rabbits tested", "setting": "rabbits [1]; NFT 180 mg/kg + DMCO 3 mg/kg", "value": "4/4"}, {"measurement": "Renal Tubular Necrosis (degree)", "setting": "rabbits [1]; NFT 180 mg/kg + DMCO 3 mg/kg", "value": "Marked"}, {"measurement": "BUN", "setting": "rabbits [1]; NFT 180 mg/kg + DMCO 3 mg/kg", "value": "65.8^S mg/100 ml"}, {"measurement": "Creatinine", "setting": "rabbits [1]; NFT 180 mg/kg + DMCO 3 mg/kg", "value": "4.2^S mg/100 ml"}, {"measurement": "numbers of rabbits with renal tubular necrosis/numbers of rabbits tested", "setting": "rabbits [1]; NFT 180 mg/kg + DMCO 10 mg/kg", "value": "4/4"}, {"measurement": "Renal Tubular Necrosis (degree)", "setting": "rabbits [1]; NFT 180 mg/kg + DMCO 10 mg/kg", "value": "Moderate-Marked"}, {"measurement": "BUN", "setting": "rabbits [1]; NFT 180 mg/kg + DMCO 10 mg/kg", "value": "53.1^S mg/100 ml"}, {"measurement": "Creatinine", "setting": "rabbits [1]; NFT 180 mg/kg + DMCO 10 mg/kg", "value": "2.9^S mg/100 ml"}, {"measurement": "numbers of rabbits with renal tubular necrosis/numbers of rabbits tested", "setting": "rabbits [1]; NFT 180 mg/kg + DMCO 30 mg/kg", "value": "4/4"}, {"measurement": "Renal Tubular Necrosis (degree)", "setting": "rabbits [1]; NFT 180 mg/kg + DMCO 30 mg/kg", "value": "V. Sl.-Moderate"}, {"measurement": "BUN", "setting": "rabbits [1]; NFT 180 mg/kg + DMCO 30 mg/kg", "value": "26.1^NS mg/100 ml"}, {"measurement": "Creatinine", "setting": "rabbits [1]; NFT 180 mg/kg + DMCO 30 mg/kg", "value": "1.3^NS mg/100 ml"}, {"measurement": "numbers of rabbits with renal tubular necrosis/numbers of rabbits tested", "setting": "rabbits [1]; NFT 180 mg/kg + DMCO 90 mg/kg", "value": "0/4"}, {"measurement": "Renal Tubular Necrosis (degree)", "setting": "rabbits [1]; NFT 180 mg/kg + DMCO 90 mg/kg", "value": "None"}, {"measurement": "BUN", "setting": "rabbits [1]; NFT 180 mg/kg + DMCO 90 mg/kg", "value": "16.6^NS mg/100 ml"}, {"measurement": "Creatinine", "setting": "rabbits [1]; NFT 180 mg/kg + DMCO 90 mg/kg", "value": "1.2^NS mg/100 ml"}, {"measurement": "ability to prevent nephrotoxicity", "setting": "rabbits [1]; co-administration with the antibiotic, general statement", "value": "has been shown to possess this property"}]}, {"smiles": "C[C@@H](O)[C@H]1C(=O)N2C(C(=O)O)=C(SCCN=CN)C[C@H]12", "note": "[NFT, N-formimidoyl thienamycin]", "values": [{"measurement": "nephrotoxic potential in the rabbit laboratory model", "setting": "rabbits [2]", "value": "nephrotoxic"}, {"measurement": "numbers of rabbits with renal tubular necrosis/numbers of rabbits tested", "setting": "rabbits [1]; NFT 180 mg/kg alone", "value": "4/4"}, {"measurement": "Renal Tubular Necrosis (degree)", "setting": "rabbits [1]; NFT 180 mg/kg alone", "value": "Marked-Severe"}, {"measurement": "BUN", "setting": "rabbits [1]; NFT 180 mg/kg alone", "value": "70.0^S mg/100 ml"}, {"measurement": "Creatinine", "setting": "rabbits [1]; NFT 180 mg/kg alone", "value": "4.2^S mg/100 ml"}]}]}
